Measurements from the NIST ThermoML archive (doi:10.1021/je2007605).
± gives the expanded uncertainty stated by the source.

Tests used:
[1] = for Normal melting temperature: DTA
[2] = Molar enthalpy of transition or fusion; settings: Crystal; DSC

SMILES: COC(=O)c1ccc(N(C)C)cc1 [methyl 4-(dimethylamino)benzoate]
- vapor or sublimation pressure ([1]; 311.12 K, Crystal, Calculated from knudsen effusion weight loss): 8.2e-05 ± 2e-05 kPa
- vapor or sublimation pressure ([1]; 313.19 K, Crystal, Calculated from knudsen effusion weight loss): 0.000104 ± 2e-05 kPa
- vapor or sublimation pressure ([1]; 315.17 K, Crystal, Calculated from knudsen effusion weight loss): 0.000131 ± 2.1e-05 kPa
- vapor or sublimation pressure ([1]; 317.11 K, Crystal, Calculated from knudsen effusion weight loss): 0.000166 ± 2.1e-05 kPa
- vapor or sublimation pressure ([1]; 319.18 K, Crystal, Calculated from knudsen effusion weight loss): 0.000211 ± 2.1e-05 kPa
- vapor or sublimation pressure ([1]; 323.12 K, Crystal, Calculated from knudsen effusion weight loss): 0.000332 ± 2.3e-05 kPa
- vapor or sublimation pressure ([1]; 324.96 K, Crystal, Closed cell (Static) method): 0.00043 ± 0.00011 kPa
- vapor or sublimation pressure ([1]; 325.18 K, Crystal, Calculated from knudsen effusion weight loss): 0.000421 ± 2.5e-05 kPa
- vapor or sublimation pressure ([1]; 326.93 K, Crystal, Closed cell (Static) method): 0.00053 ± 0.00011 kPa
- vapor or sublimation pressure ([1]; 327.16 K, Crystal, Calculated from knudsen effusion weight loss): 0.000525 ± 2.7e-05 kPa
- vapor or sublimation pressure ([1]; 328.93 K, Crystal, Closed cell (Static) method): 0.00068 ± 0.00011 kPa
- vapor or sublimation pressure ([1]; 329.11 K, Crystal, Calculated from knudsen effusion weight loss): 0.000662 ± 3.1e-05 kPa
- vapor or sublimation pressure ([1]; 330.9 K, Crystal, Closed cell (Static) method): 0.00084 ± 0.00012 kPa
- vapor or sublimation pressure ([1]; 331.17 K, Crystal, Calculated from knudsen effusion weight loss): 0.000829 ± 3.6e-05 kPa
- vapor or sublimation pressure ([1]; 332.91 K, Crystal, Closed cell (Static) method): 0.00105 ± 0.00012 kPa
- vapor or sublimation pressure ([1]; 333.16 K, Crystal, Calculated from knudsen effusion weight loss): 0.001019 ± 7.9e-05 kPa
- vapor or sublimation pressure ([1]; 334.88 K, Crystal, Closed cell (Static) method): 0.0013 ± 0.00012 kPa
- vapor or sublimation pressure ([1]; 336.89 K, Crystal, Closed cell (Static) method): 0.00161 ± 0.00013 kPa
- vapor or sublimation pressure ([1]; 338.85 K, Crystal, Closed cell (Static) method): 0.00199 ± 0.00014 kPa
- vapor or sublimation pressure ([1]; 340.86 K, Crystal, Closed cell (Static) method): 0.00246 ± 0.00015 kPa
- vapor or sublimation pressure ([1]; 342.81 K, Crystal, Closed cell (Static) method): 0.00298 ± 0.00017 kPa
- vapor or sublimation pressure ([1]; 344.83 K, Crystal, Closed cell (Static) method): 0.00365 ± 0.00019 kPa
- vapor or sublimation pressure ([1]; 346.78 K, Crystal, Closed cell (Static) method): 0.00447 ± 0.00021 kPa
- vapor or sublimation pressure ([1]; 348.79 K, Crystal, Closed cell (Static) method): 0.00542 ± 0.00024 kPa
- vapor or sublimation pressure ([1]; 350.75 K, Crystal, Closed cell (Static) method): 0.00655 ± 0.00028 kPa
- vapor or sublimation pressure ([1]; 352.74 K, Crystal, Closed cell (Static) method): 0.00799 ± 0.00034 kPa
- vapor or sublimation pressure ([1]; 352.78 K, Liquid, Closed cell (Static) method): 0.01105 ± 0.00045 kPa
- vapor or sublimation pressure ([1]; 354.73 K, Crystal, Closed cell (Static) method): 0.0096 ± 0.00039 kPa
- vapor or sublimation pressure ([1]; 354.77 K, Liquid, Closed cell (Static) method): 0.01276 ± 0.00051 kPa
- vapor or sublimation pressure ([1]; 356.72 K, Crystal, Closed cell (Static) method): 0.01168 ± 0.00047 kPa
- vapor or sublimation pressure ([1]; 356.75 K, Liquid, Closed cell (Static) method): 0.01475 ± 0.00054 kPa
- vapor or sublimation pressure ([1]; 358.69 K, Crystal, Closed cell (Static) method): 0.01403 ± 0.00053 kPa
- vapor or sublimation pressure ([1]; 358.73 K, Liquid, Closed cell (Static) method): 0.01697 ± 0.00058 kPa
- vapor or sublimation pressure ([1]; 360.68 K, Crystal, Closed cell (Static) method): 0.01658 ± 0.00057 kPa
- vapor or sublimation pressure ([1]; 360.72 K, Liquid, Closed cell (Static) method): 0.01953 ± 0.00062 kPa
- vapor or sublimation pressure ([1]; 362.67 K, Crystal, Closed cell (Static) method): 0.01987 ± 0.00062 kPa
- vapor or sublimation pressure ([1]; 362.7 K, Liquid, Closed cell (Static) method): 0.02236 ± 0.00066 kPa
- vapor or sublimation pressure ([1]; 364.65 K, Crystal, Closed cell (Static) method): 0.02318 ± 0.00067 kPa
- vapor or sublimation pressure ([1]; 364.68 K, Liquid, Closed cell (Static) method): 0.02563 ± 0.00071 kPa
- vapor or sublimation pressure ([1]; 366.61 K, Crystal, Closed cell (Static) method): 0.02725 ± 0.00074 kPa
- vapor or sublimation pressure ([1]; 366.67 K, Liquid, Closed cell (Static) method): 0.02928 ± 0.00077 kPa
- vapor or sublimation pressure ([1]; 368.66 K, Crystal, Closed cell (Static) method): 0.03255 ± 0.00082 kPa
- vapor or sublimation pressure ([1]; 368.66 K, Liquid, Closed cell (Static) method): 0.03341 ± 0.00083 kPa
- vapor or sublimation pressure ([1]; 370.64 K, Liquid, Closed cell (Static) method): 0.03797 ± 0.0009 kPa
- vapor or sublimation pressure ([1]; 372.62 K, Liquid, Closed cell (Static) method): 0.04321 ± 0.00098 kPa
- vapor or sublimation pressure ([1]; 374.62 K, Liquid, Closed cell (Static) method): 0.04885 ± 0.0011 kPa
- vapor or sublimation pressure ([1]; 376.56 K, Liquid, Closed cell (Static) method): 0.05553 ± 0.0012 kPa
- vapor or sublimation pressure ([1]; 378.53 K, Liquid, Closed cell (Static) method): 0.0627 ± 0.0013 kPa
- vapor or sublimation pressure ([1]; 380.52 K, Liquid, Closed cell (Static) method): 0.07058 ± 0.0014 kPa
- vapor or sublimation pressure ([1]; 382.5 K, Liquid, Closed cell (Static) method): 0.07972 ± 0.0015 kPa
- vapor or sublimation pressure ([1]; 384.49 K, Liquid, Closed cell (Static) method): 0.08949 ± 0.0017 kPa
- vapor or sublimation pressure ([1]; 386.42 K, Liquid, Closed cell (Static) method): 0.1006 ± 0.0019 kPa
- vapor or sublimation pressure ([1]; 388.46 K, Liquid, Closed cell (Static) method): 0.1126 ± 0.0021 kPa
- vapor or sublimation pressure ([1]; 390.44 K, Liquid, Closed cell (Static) method): 0.1259 ± 0.0023 kPa
- Normal melting temperature ([1]; Crystal): 98.14 ± 0.39 °C
- Molar enthalpy of transition or fusion [2]: 5.59 ± 0.12 kcal/mol

SMILES: COC(=O)c1ccc(C)cc1 [methyl 4-methylbenzoate]
- vapor or sublimation pressure ([1]; 269.27 K, Crystal, Closed cell (Static) method): 0.0004 ± 9e-05 kPa
- vapor or sublimation pressure ([1]; 271.21 K, Crystal, Closed cell (Static) method): 0.00052 ± 0.0001 kPa
- vapor or sublimation pressure ([1]; 273.18 K, Crystal, Closed cell (Static) method): 0.00067 ± 0.0001 kPa
- vapor or sublimation pressure ([1]; 275.19 K, Crystal, Closed cell (Static) method): 0.00087 ± 0.0001 kPa
- vapor or sublimation pressure ([1]; 277.14 K, Crystal, Closed cell (Static) method): 0.00112 ± 0.0001 kPa
- vapor or sublimation pressure ([1]; 279.16 K, Crystal, Closed cell (Static) method): 0.00145 ± 0.00011 kPa
- vapor or sublimation pressure ([1]; 281.08 K, Crystal, Closed cell (Static) method): 0.00184 ± 0.00012 kPa
- vapor or sublimation pressure ([1]; 283.07 K, Crystal, Closed cell (Static) method): 0.00235 ± 0.00013 kPa
- vapor or sublimation pressure ([1]; 285.08 K, Crystal, Closed cell (Static) method): 0.003 ± 0.00015 kPa
- vapor or sublimation pressure ([1]; 287.05 K, Crystal, Closed cell (Static) method): 0.00377 ± 0.00018 kPa
- vapor or sublimation pressure ([1]; 289.04 K, Crystal, Closed cell (Static) method): 0.00475 ± 0.00021 kPa
- vapor or sublimation pressure ([1]; 291.04 K, Crystal, Closed cell (Static) method): 0.00599 ± 0.00026 kPa
- vapor or sublimation pressure ([1]; 293.03 K, Liquid, Closed cell (Static) method): 0.01066 ± 0.00043 kPa
- vapor or sublimation pressure ([1]; 293.04 K, Crystal, Closed cell (Static) method): 0.00745 ± 0.00031 kPa
- vapor or sublimation pressure ([1]; 295.02 K, Crystal, Closed cell (Static) method): 0.00939 ± 0.00038 kPa
- vapor or sublimation pressure ([1]; 295.08 K, Liquid, Closed cell (Static) method): 0.0127 ± 0.00051 kPa
- vapor or sublimation pressure ([1]; 297.03 K, Crystal, Closed cell (Static) method): 0.01167 ± 0.00047 kPa
- vapor or sublimation pressure ([1]; 297.05 K, Liquid, Closed cell (Static) method): 0.01498 ± 0.00054 kPa
- vapor or sublimation pressure ([1]; 299.02 K, Crystal, Closed cell (Static) method): 0.01451 ± 0.00054 kPa
- vapor or sublimation pressure ([1]; 299.04 K, Liquid, Closed cell (Static) method): 0.01755 ± 0.00058 kPa
- vapor or sublimation pressure ([1]; 300.98 K, Crystal, Closed cell (Static) method): 0.01795 ± 0.00059 kPa
- vapor or sublimation pressure ([1]; 301.03 K, Liquid, Closed cell (Static) method): 0.02057 ± 0.00063 kPa
- vapor or sublimation pressure ([1]; 303 K, Liquid, Closed cell (Static) method): 0.02404 ± 0.00068 kPa
- vapor or sublimation pressure ([1]; 305.03 K, Liquid, Closed cell (Static) method): 0.02784 ± 0.00074 kPa
- vapor or sublimation pressure ([1]; 306.98 K, Liquid, Closed cell (Static) method): 0.03242 ± 0.00081 kPa
- vapor or sublimation pressure ([1]; 308.97 K, Liquid, Closed cell (Static) method): 0.03825 ± 0.0009 kPa
- vapor or sublimation pressure ([1]; 310.97 K, Liquid, Closed cell (Static) method): 0.0434 ± 0.00098 kPa
- vapor or sublimation pressure ([1]; 312.95 K, Liquid, Closed cell (Static) method): 0.05065 ± 0.0011 kPa
- vapor or sublimation pressure ([1]; 314.97 K, Liquid, Closed cell (Static) method): 0.05815 ± 0.0012 kPa
- vapor or sublimation pressure ([1]; 316.99 K, Liquid, Closed cell (Static) method): 0.06735 ± 0.0014 kPa
- vapor or sublimation pressure ([1]; 318.9 K, Liquid, Closed cell (Static) method): 0.07685 ± 0.0015 kPa
- vapor or sublimation pressure ([1]; 320.95 K, Liquid, Closed cell (Static) method): 0.08945 ± 0.0017 kPa
- vapor or sublimation pressure ([1]; 322.94 K, Liquid, Closed cell (Static) method): 0.1009 ± 0.0019 kPa
- vapor or sublimation pressure ([1]; 324.92 K, Liquid, Closed cell (Static) method): 0.1171 ± 0.0021 kPa
- vapor or sublimation pressure ([1]; 326.96 K, Liquid, Closed cell (Static) method): 0.132 ± 0.002 kPa
- vapor or sublimation pressure ([1]; 328.85 K, Liquid, Closed cell (Static) method): 0.151 ± 0.0022 kPa
- vapor or sublimation pressure ([1]; 330.92 K, Liquid, Closed cell (Static) method): 0.1689 ± 0.0024 kPa
- vapor or sublimation pressure ([1]; 332.84 K, Liquid, Closed cell (Static) method): 0.1934 ± 0.0026 kPa
- vapor or sublimation pressure ([1]; 334.91 K, Liquid, Closed cell (Static) method): 0.2162 ± 0.0028 kPa
- vapor or sublimation pressure ([1]; 336.82 K, Liquid, Closed cell (Static) method): 0.2454 ± 0.003 kPa
- vapor or sublimation pressure ([1]; 338.88 K, Liquid, Closed cell (Static) method): 0.2748 ± 0.0033 kPa
- vapor or sublimation pressure ([1]; 340.75 K, Liquid, Closed cell (Static) method): 0.31 ± 0.0036 kPa
- vapor or sublimation pressure ([1]; 342.8 K, Liquid, Closed cell (Static) method): 0.3469 ± 0.0039 kPa
- vapor or sublimation pressure ([1]; 344.71 K, Liquid, Closed cell (Static) method): 0.3884 ± 0.0043 kPa
- vapor or sublimation pressure ([1]; 346.77 K, Liquid, Closed cell (Static) method): 0.4353 ± 0.0047 kPa
- vapor or sublimation pressure ([1]; 348.75 K, Liquid, Closed cell (Static) method): 0.484 ± 0.0051 kPa
- Normal melting temperature ([1]; Crystal): 31.94 ± 0.52 °C
- Molar enthalpy of transition or fusion [2]: 4.83 ± 0.215 kcal/mol
